# Data: US20050074901A1, “Methods and assays for detecting and quantifying the human p53 inducible gene protein” (priority 2002, published 2005)
# Read-outs that look alike come from different tables or passages of the source.
# Tests used:
# PIG3 [1] = experiment: Adriamycin upregulation of PIG3 over time and dose (PIG3 ELISA, FIG. 4A); type: cell-based, human
# From the text: The invention features a PIG3 ELISA that is a “sandwich” enzyme immunoassay employing two mouse monoclonal antibodies and methods for using the assay. A monoclonal antibody, specific for the human PIG3 protein, is immobilized onto the surface of microtiter wells provided. A kit for the immunoassay, comprising two monoclonal antibodies X1155P and X1156M, is available from Exalpha Biologicals, Inc. in Boston, Mass. As the Frontier Assay Kit. The sample to be assayed and the biotinylated detector monoclonal antibody are pipetted into the wells and allowed to incubate for two hours, during which time any PIG3 present binds to the capture and detecting antibodies. […]
# The horseradish peroxidase catalyzes the conversion of the chromogenic substrate tetra-methylbenzidine (TMB) from a colorless solution to a blue solution (or yellow after the addition of stop reagent), the intensity of which is proportional to the amount of PIG3 protein in the sample. The colored reaction product is quantified using a spectrophotometer.
# Quantitation is achieved by the construction of a standard curve using known concentrations of PIG3 (provided lyophilized). By comparing the absorbance obtained from a sample containing an unknown amount of PIG3 with that obtained from the standards, the concentration of PIG3 in the sample is determined. […]
# PIG3 [2] = conditions: cited from earlier work
smiles,measurement,setting,value
"COc1cccc2c1C(=O)c1c(O)c3c(c(O)c1C2=O)C[C@@](O)(C(=O)CO)C[C@@H]3O[C@H]1C[C@H](N)[C@H](O)[C@H](C)O1 [Adriamycin, adriamycin]",PIG3 level,PIG3 [1],upregulation of PIG3
same,PIG3 induction,PIG3 [2]; cell lines with wild-type p53 genes,strongly induced
same,PIG3 induction,PIG3 [2]; cell with mutant p53,not in the cell with mutant p53
